Assay results: patent US10501413B2, “Inhibitors of the Notch transcriptional activation complex and methods for use of the same” (UNIVERSITY OF MIAMI, priority 2015, dated 2019)

Test system: OE19 human esophageal adenocarcinoma xenograft
Experiment: OE19 cell line xenograft
Assay type: in vivo
Settings: nude mouse
Excerpt: The effect of the inhibitors of the disclosure on tumor formation in an animal was investigated using a xenograft model. When introduced into the flank of nude mouse 5×10^6 OE19 cells, a human esophageal adenocarcinoma cell line readily forms tumors over the course of 4 weeks. […] In contrast, treatment under the same regimen with a DMSO control had no effect on tumor growth. […] (FIG. 4) Six-week-old NOD-SCID gamma (“NSG”) mice were purchased from Jackson Laboratories and CD-1 Nude mice were purchased from Charles River Laboratories. For the cell line based xenografts assay, 5×10^6 OE19 cells in 200 μl serum-free culture medium were injected subcutaneously per mouse. The mice in the treatment group were injected with 15 mg/kg of Inhibitor No. 1-134-83 daily, and the mice in the control group were injected with the same volume of vehicle (DMSO). Subcutaneous tumor growth was measured once every 4 days using calipers along with body weight. The experiment was discontinued on day 28. PDX cancer models were established, as described in Zhang et al, Establishment of Patient-Derived Xenograft (PDX) Models of Human Breast Cancer, Current Protocols in Mouse Biology, 3:21-29 (2013), in NSG mice. […] Tumor growth was monitored every 4 days and tumor volume was measured by the formula: Volume=(S×S×L)/2, where S and L are the short and long dimensions. […]

Structure (SMILES): CCOC(=O)COc1ccc(/C=C2\SC(=S)NC2=O)cc1OC [1-134-83]
- adverse effects on the animal (e.g. change in body weight) (15 mg/kg every day): no adverse effects
- tumor establishment (15 mg/kg every day from second day after transplantation): tumor establishment was blocked
